Compared with `COc1ccc(-c2nsc3ccc([N+](=O)[O-])cc23)cc1`, `COc1ccc(Nc2ncnc(NCc3ccco3)n2)cc1` is lower in melting point: 207 °C for the first, 184 to 186 °C for the second.

First: Cn1c(C(N)=O)nc([N+](=O)[O-])c1C#N
Second: C#CCN(C(C)=O)c1cccc(-c2ccnc3c(C#N)cnn23)c1
The melting point of the first is higher: 265 to 267 °C for the first, 193 to 195 °C for the second.

First: c1ccc(-c2cc(-c3ccc4c(c3)OCO4)cc(OCCCCCc3nnn[nH]3)n2)cc1
Second: O=C(O)c1ccc(-c2coc3ccc(-c4ccccc4)cc23)cc1
The melting point of the first is lower: 150 °C for the first, 245 to 248 °C for the second.

First: OCC(CO)CCOc1ccccc1
Second: CN1C(=O)NC(Cc2ccccc2)C1=O (stereo unspecified)
The melting point of the first is lower: 71 to 73 °C for the first, 172 °C for the second.

First: CC1(COc2cccc(-c3noc4ccsc34)c2)CO1 (stereo unspecified)
Second: COc1ccc(CN2C(=O)C3(COc4cc5onc(C)c5cc43)c3ccccc32)cc1 (stereo unspecified)
The melting point of the first is lower: 84 to 85 °C for the first, 138 to 139 °C for the second.

Compared with `CSC(CC(=O)O)c1ccc(C(F)(F)F)cc1` (stereo unspecified), `CC(=O)CSc1ccc(Cl)cc1C(=O)O` is higher in melting point: 106 to 108 °C for the first, 139 to 140 °C for the second.

Compared with `CCc1cccc(C)c1CNc1nc(OC)cc2c1nc(C)n2C`, `Cn1nnnc1-c1cn(C)c2ccc(F)cc2c1=O` is higher in melting point: 106 to 107 °C for the first, 260 to 261 °C for the second.

First: CCOC(=O)C1=NOC(c2ccc(NC(=O)c3c(I)cccc3C(=O)NC(C)C)c(C)c2)(C(F)(F)F)C1 (stereo unspecified)
Second: Cc1ccc(C2(CNC(=O)Nc3c(C(C)C)cccc3C(C)C)CCCC2)cc1
The melting point of the first is higher: 172 to 174 °C for the first, 159 to 161 °C for the second.

First: O=C1CCC(c2ccc(N=C=S)cc2)=NN1
Second: CC1(C)OC(c2ccc(S(C)(=O)=O)cc2)=C(Br)C1=O
The melting point of the first is lower: 182 to 183 °C for the first, 196 °C for the second.

Compared with `Nc1nc(Nc2ccccc2)c2ncn(C3CC(F)C(CO)O3)c2n1` (stereo unspecified), `O[C@H]1COC(c2cc3ccccc3[nH]2)=N[C@@H]1c1ccccc1` (racemic) is higher in melting point: 193 to 194 °C for the first, 204 °C for the second.

Compared with `CN(Cc1cc2c3c(c1)c(=O)c(C(=O)NCc1ccc(F)cc1)cn3CC(=O)N2C)C[C@@H](O)c1ccccc1`, `Cc1oc(-c2ccccc2)nc1CN(C)C(=O)c1ccc(C=C2SC(=O)NC2=O)cc1` is lower in melting point: 150 to 152 °C for the first, 95 to 98 °C for the second.

First: CC(O)Cn1ccc2ccc(F)c(Cl)c21 (racemic)
Second: CCOc1cc(F)ccc1C(=O)c1ccc(OC)c(Cl)c1Cl
The melting point of the first is lower: 85 to 87 °C for the first, 107 to 109 °C for the second.

First: CCOC(=O)c1c(C)[nH]c(CC)c1CC
Second: CCCc1nn(CC)c2c(=O)[nH]c(C)nc12
The melting point of the first is lower: 104 to 106 °C for the first, 211 to 213 °C for the second.

First: CC(=O)C1Cc2cc(CCN3CCC(c4noc5cc(F)ccc45)CC3)sc2CN1 (stereo unspecified)
Second: CC(=O)Nc1nc(CCc2ccc(CCN3CCN(C(=O)OC(C)(C)C)CC3)cc2)cs1
The melting point of the first is lower: 170 to 172 °C for the first, 178 to 179 °C for the second.

First: Cc1cc(Nc2ncnc3ccn(CCNC(=O)CS(C)(=O)=O)c23)ccc1Oc1cccc(OC(F)(F)F)c1
Second: COc1c(NC(=O)Nc2ccc(Oc3ccoc(=O)c3)c3ccccc23)cc(C(C)(C)C)cc1NS(C)(=O)=O
The melting point of the first is lower: 106 to 108 °C for the first, 185 to 187 °C for the second.

First: O=C(O)C1CC(=O)N(Cc2ccccc2)C1c1ccccc1 (stereo unspecified)
Second: NC(=O)c1cccc(-c2ccnc(C(=O)N(O)Cc3ccccc3)c2)c1
The melting point of the first is higher: 169 to 171 °C for the first, 158 to 162 °C for the second.

Compared with `CC(C)(C)OC(=O)NCCCC(COC(=O)Oc1ccc([N+](=O)[O-])cc1)NC(=O)OCC1c2ccccc2-c2ccccc21` (stereo unspecified), `CCN(CC)C(=O)CN1C(=O)C(NC(=O)Nc2ccc(Cl)cc2)N=C(c2ccccc2)c2ccccc21` (stereo unspecified) is higher in melting point: 140 to 142 °C for the first, 284 to 285 °C for the second.

Compared with `CC(C)(C)n1nnc(-c2ccccc2-c2ccc(C=O)cc2)n1`, `C1=Cn2cnnc2Cc2ccccc21` is higher in melting point: 71 to 73 °C for the first, 157 to 158 °C for the second.

First: OC(CNC1=NCCN1)c1ccc(F)cc1 (stereo unspecified)
Second: Cc1c(N(C)C)ccc(Br)c1N=C1NCCN1
The melting point of the first is lower: 153 °C for the first, 157 to 158 °C for the second.

First: COc1ccccc1NC(=O)Nc1ccc(C2=CCN(C(=O)Nc3ccc(OCCO)cc3Cl)CC2)cc1
Second: CCOC(=O)c1cccc(-c2ccc3c(n2)C(Oc2ccc(Cl)cc2Cl)CC3)c1 (stereo unspecified)
The melting point of the first is lower: 120 to 125 °C for the first, 129 to 130 °C for the second.

First: COC(=O)c1cc(OC)c(OS(=O)(=O)C(F)(F)F)cc1N
Second: O=S(=O)(CC(F)(F)F)c1nc2cc(Cl)c(Cl)cc2[nH]1
The melting point of the first is lower: 85 to 87 °C for the first, 190 to 192 °C for the second.

First: Cc1cc2c(cc1OCCn1ccnc1)CC/C(=C\c1cccs1)C2=O
Second: O=C(c1cccc(C(F)(F)F)c1)N1CCc2cc(S(=O)(=O)N3CC(c4ccccc4)NC3=O)ccc21 (stereo unspecified)
The melting point of the first is higher: 150 to 151 °C for the first, 119 °C for the second.

First: CCOc1nsc(S(C)(=O)=O)c1S(C)(=O)=O
Second: CCCC(=NOCC)C1=C(O)CC(c2cc(C3CCOC3)no2)CC1=O (stereo unspecified)
The melting point of the first is higher: 158 to 160 °C for the first, 85 °C for the second.

Compared with `FC(F)(F)c1cccc(-c2ccnc3nccn23)c1`, `NS(=O)(=O)c1cccc2cc[nH]c12` is lower in melting point: 160 to 163 °C for the first, 125 to 127 °C for the second.

First: CON=C(C#CCCl)C(=O)OC
Second: CC1=C(C)CCCCCC1
The melting point of the first is higher: 64 to 67 °C for the first, 63 to 64 °C for the second.

For `Fc1ccc(-c2nc(SCSc3nc(-c4ccc(F)cc4)c(-c4ccc(F)cc4)[nH]3)[nH]c2-c2ccc(F)cc2)cc1`, the melting point was 265 °C.

From a melting point compilation (Tetko et al.; mined from patent text by program, amines drawn as free bases though some values may be those of a salt)
